Data as given in patent publication US12448369B2 (Edgewise Therapeutics, Inc., priority 2023, dated 2025).

Experiments:
[1] = system: Porcine atria myofibrils (atrial myosin ATPase); assay: Myofibril ATPase assay, porcine atria myofibrils; assay type: biochemical; conditions: porcine atria myofibrils
Outline: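 Coupled PK-LDH readout, NADH loss at 340 nm, kinetic 75 min. Porcine atria myofibrils, pCa buffer (PIPES/CaCl2/EGTA, pH 7.0). Slopes (mAU/min) normalized to vehicle = 100%, 4-parameter fit; Y75 or Y125 reported.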

[2] = system: Rabbit Psoas myofibrils (skeletal myosin ATPase); assay: Myofibril ATPase assay, rabbit psoas (skeletal) myofibrils; assay type: biochemical; conditions: rabbit psoas myofibrils
Outline: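 Readout: A340 decline from NADH oxidation, PK/LDH-coupled to ADP release; kinetic reads over 75 min. Buffer: pCa (PIPES, CaCl2, EGTA), pH 7.0. Linear-regression slopes vs vehicle, 4PL fit; reported as concentration giving 75% (Y75) or 125% (Y125) of vehicle activity.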

[3] = molecular target: T1, Porcine ventricle myofibrils (ventricular myosin ATPase) (Sus scrofa, UniProt P79293); assay: Myofibril ATPase assay, porcine ventricle myofibrils; assay type: biochemical, porcine (Yucatan minipigs); conditions: porcine ventricle myofibrils
T1 construct: Myofibrils from porcine cardiac muscle was isolated from the left ventricle of Yucatan minipigs; tissue Exemplar Genetics; host or cells: left ventricle of Yucatan minipigs, myofibrils prepared in house
T1 sequence (P79293 whole entry): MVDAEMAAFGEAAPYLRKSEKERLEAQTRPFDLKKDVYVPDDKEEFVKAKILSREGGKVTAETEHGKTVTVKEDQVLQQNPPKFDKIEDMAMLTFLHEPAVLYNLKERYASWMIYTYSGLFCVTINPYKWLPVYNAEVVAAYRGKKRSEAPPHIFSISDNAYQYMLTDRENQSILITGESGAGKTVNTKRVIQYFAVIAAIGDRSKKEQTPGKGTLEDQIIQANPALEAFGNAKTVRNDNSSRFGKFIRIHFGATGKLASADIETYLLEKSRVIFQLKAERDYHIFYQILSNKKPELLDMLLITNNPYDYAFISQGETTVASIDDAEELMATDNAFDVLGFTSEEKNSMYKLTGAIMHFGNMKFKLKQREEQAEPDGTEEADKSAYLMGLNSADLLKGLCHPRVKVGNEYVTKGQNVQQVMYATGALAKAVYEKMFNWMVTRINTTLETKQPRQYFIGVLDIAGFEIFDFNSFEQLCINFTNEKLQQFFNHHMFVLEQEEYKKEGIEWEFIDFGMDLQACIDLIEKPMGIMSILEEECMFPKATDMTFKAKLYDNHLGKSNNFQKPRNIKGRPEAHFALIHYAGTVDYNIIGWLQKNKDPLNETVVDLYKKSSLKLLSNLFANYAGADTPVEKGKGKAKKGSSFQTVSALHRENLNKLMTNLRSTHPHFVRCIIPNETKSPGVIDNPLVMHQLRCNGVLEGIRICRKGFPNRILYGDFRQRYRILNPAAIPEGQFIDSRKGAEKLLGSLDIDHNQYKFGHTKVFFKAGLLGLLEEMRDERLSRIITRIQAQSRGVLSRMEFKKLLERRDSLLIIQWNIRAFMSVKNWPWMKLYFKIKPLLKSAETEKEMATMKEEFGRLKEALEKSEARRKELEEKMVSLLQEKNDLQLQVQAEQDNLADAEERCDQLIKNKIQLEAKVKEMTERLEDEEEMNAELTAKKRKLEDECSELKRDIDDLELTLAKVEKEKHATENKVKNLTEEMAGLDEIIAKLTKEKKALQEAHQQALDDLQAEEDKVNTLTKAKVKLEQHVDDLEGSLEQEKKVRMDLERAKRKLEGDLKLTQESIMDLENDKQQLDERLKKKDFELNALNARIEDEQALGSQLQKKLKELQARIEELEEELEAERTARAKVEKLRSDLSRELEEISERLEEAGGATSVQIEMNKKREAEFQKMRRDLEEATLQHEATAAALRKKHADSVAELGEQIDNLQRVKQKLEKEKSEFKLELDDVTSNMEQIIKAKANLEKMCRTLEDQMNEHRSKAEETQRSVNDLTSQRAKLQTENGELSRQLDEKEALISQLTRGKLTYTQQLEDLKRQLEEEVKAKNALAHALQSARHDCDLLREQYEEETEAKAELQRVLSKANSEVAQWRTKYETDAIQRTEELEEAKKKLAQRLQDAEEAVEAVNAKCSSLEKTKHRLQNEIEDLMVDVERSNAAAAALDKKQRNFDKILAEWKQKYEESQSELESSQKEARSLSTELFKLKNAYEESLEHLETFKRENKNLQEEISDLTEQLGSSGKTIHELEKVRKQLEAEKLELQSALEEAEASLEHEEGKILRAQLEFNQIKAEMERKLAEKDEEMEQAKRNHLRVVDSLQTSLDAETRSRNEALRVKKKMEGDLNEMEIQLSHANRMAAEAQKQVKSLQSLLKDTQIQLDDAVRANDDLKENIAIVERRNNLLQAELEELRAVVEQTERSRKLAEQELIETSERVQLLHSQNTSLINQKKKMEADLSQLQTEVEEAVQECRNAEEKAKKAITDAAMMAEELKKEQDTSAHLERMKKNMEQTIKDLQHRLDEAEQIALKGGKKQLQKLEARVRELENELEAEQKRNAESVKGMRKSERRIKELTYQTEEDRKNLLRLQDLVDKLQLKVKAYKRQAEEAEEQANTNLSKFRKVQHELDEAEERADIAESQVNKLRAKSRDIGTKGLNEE
Outline: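 Test compounds acted on myofibrils isolated from the left ventricle of Yucatan minipigs. ADP formation was coupled via pyruvate kinase/lactate dehydrogenase to NADH oxidation, monitored kinetically at 340 nm over 75 min. Rates relative to vehicle were fitted with a 4-parameter logistic model, reported as Y75 (25% inhibition) or Y125 (activation) concentrations.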

[4] = Y75 value (75% activity relative to no compound)
[5] = ‡ Y125 value, not a Y75 value (125% activity relative to no compound)

Compound	Atrial EC25 [1, 4] [µM]	Skeletal EC25 ([2]; Y75 value) [µM]	Ventricular EC25 ([3]; Y75 value) [µM]	Atrial EC25 ([1]; Y75 value (no ‡ mark)) [µM]	Skeletal EC25 ([2]; Y75 value (no ‡ mark)) [µM]	Ventricular EC25 ([3]; Y75 value (no ‡ mark)) [µM]	also measured
Cc1c(CC(=O)N[C@H](CO)c2ncccc2F)c(=O)[nH]c2ccnc(C#N)c12 (single isomer, unassigned) [compound 235]	100.00	100.00	100.00				
Cc1nccc2[nH]c(=O)c(CC(=O)N[C@H](c3ccc(F)cc3F)C(C)(C)O)c(C)c12 (single isomer, unassigned) [compound 272]	100.00	100.00	100.00				
Cc1cc(C#N)nnc1[C@H](C)NC(=O)Cc1c(C)c2c(C)nccc2[nH]c1=O [compound 490]	100.00	45.80	100.00				
Cc1c(C2(C(=O)N[C@@H](C)c3ncc(C#N)cn3)CC2)c(=O)[nH]c2ccc(F)c(C#N)c12 (single isomer, unassigned) [compound 2532]				0.89	1.49	45.96	
CNc1c(CC(=O)N[C@@H](C)c2ccc(F)cc2F)c(=O)[nH]c2ccccc12 [compound 128]				0.90	0.17	9.83	
Cc1cc(C#N)ccc1[C@@H](C)NC(=O)Cc1c(O)c2cc(F)c(F)cc2[nH]c1=O [compound 1088]				5.78	100.00	100.00	
Cc1c(C(C)C(=O)N[C@@H](C)c2ccc(F)cc2F)c(=O)[nH]c2ccc(F)cc12 (stereo partly drawn) [compound 127]				0.19	0.17	3.12	
Cc1nccc2[nH]c(=O)c(CC(=O)N[C@H]3CCc4cc(C#N)cc(F)c43)c(C)c12 (single isomer, unassigned) [compound 198]	0.31	0.02	0.18				
COc1ccc2[nH]c(=O)c(CC(=O)N[C@H](C)c3ncc(F)cc3F)cc2c1C (single isomer, unassigned) [compound 79]				100.00	100.00	100.00	
O=C(Cc1cc2c(F)c(F)ccc2[nH]c1=O)N[C@H]1COc2ncccc21 (single isomer, unassigned) [compound 64]				100.00	83.26	100.00	
C[C@H](NC(=O)Cc1cc2c(OCC(F)F)nccc2[nH]c1=O)c1ccc(F)cc1F [compound 389]	0.71	0.25	100.00				
Cc1c(CC(=O)N[C@@H](C)c2cnc(C#N)cn2)c(=O)[nH]c2ccc(F)cc12 [compound 1109]				0.16	0.05	0.36	
Cc1ccncc1[C@H](C)NC(=O)Cc1c(C)c2cc(F)ccc2[nH]c1=O [compound 1049]				100.00	29	100.00	
Cc1nncc2[nH]c(=O)c(CC(=O)N[C@H](C)c3ccc(F)cc3F)cc12 [compound 499]	100	100	100				
Cc1nc(C#N)cnc1[C@H](C)NC(=O)C(F)(F)c1c(C)c2c(C)nccc2[nH]c1=O (single isomer, unassigned) [compound 3505]	1.90	4.70	13.00				
Cc1c(F)ccc2[nH]c(=O)c(C(F)(F)C(=O)N[C@H](C)c3ncc(C#N)cn3)c(C#N)c12 (single isomer, unassigned) [Compound 2511]				0.76	0.28	2.64	
Cc1nccc2[nH]c(=O)c(CC(=O)NC[C@H](CO)c3ccccc3)c(C)c12 [compound 493]	100.00	100.00	100.00				
Cc1ccccc1[C@@H](CO)NC(=O)Cc1c(C)c2c(C)nccc2[nH]c1=O (single isomer, unassigned) [compound 337]	100.00	100.00	100.00				
Cc1c(CC(=O)N[C@@H](CO)c2ccc(C#N)cc2F)c(=O)[nH]c2ccnc(C#N)c12 (single isomer, unassigned) [compound 242]	0.09	0.02	0.52				

Compound	Atrial EC25 [1, 4] [µM]	Skeletal EC25 ([2]; Y75 value) [µM]	Ventricular EC25 ([3]; Y75 value) [µM]	Atrial EC25 ([1]; Y75 value (no ‡ mark)) [µM]	Skeletal EC25 ([2]; Y75 value (no ‡ mark)) [µM]	Ventricular EC25 ([3]; Y75 value (no ‡ mark)) [µM]	also measured
Cc1c(C(F)(F)C(=O)N[C@H](C)c2cnc(C#N)cn2)c(=O)[nH]c2ccc(F)cc12 (single isomer, unassigned) [compound 2563]				0.15	0.12	0.54	
Cc1nccc2[nH]c(=O)c(CC(=O)N[C@H](C)c3ncc(C#N)cn3)c(C)c12 [compound 482]	28.27	100.00	63.17				
CC(NC(=O)C1(c2cc3c(F)c(F)ccc3[nH]c2=O)CC1)c1cccc(C#N)n1 (single isomer, unassigned) [Compound 2570]							Atrial EC25 [1, 5]: 100.00‡ μM; Skeletal EC25 [2, 5]: 26.03‡ μM; Ventricular EC25 [3, 5]: 63.85‡ μM
Cc1cc(F)ccc1[C@H](C)NC(=O)Cc1c(C)c2c(C)nccc2[nH]c1=O [compound 407]	0.10	0.02	0.33				
C[C@@H](NC(=O)C1(c2cc3c(F)c(F)ccc3[nH]c2=O)CC1)c1ncc(C#N)cc1F (single isomer, unassigned) [compound 2592]				0.13	3.54	0.47	
C[C@H](NC(=O)[C@@H](C)c1cc2c(Cl)c(O)ccc2[nH]c1=O)c1ccc(F)cc1F (single isomer, unassigned) [compound 88]				83.97	74.46	88.39	
Cc1nccc2[nH]c(=O)c(CC(=O)N[C@H]3CCc4cc(F)cc(F)c43)c(C)c12 [compound 501]	76	3.4	78				
Cc1c(CC(=O)N[C@H](CO)c2ccc(C#N)cc2F)c(=O)[nH]c2ccc(C(F)(F)F)nc12 [compound 218]	100.00	14.86	100.00				
Cc1ccc2[nH]c(=O)c(CC(=O)N[C@H](C)c3ncc(C#N)cn3)cc2c1F (single isomer, unassigned) [compound 2013]				16.08	13.05	100.00	
Cc1nncc2[nH]c(=O)c(CC(=O)N[C@@H](C)c3ncc(C#N)cc3F)cc12 [compound 452]	63.47	100.00	100.00				
C[C@H](NC(=O)Cc1cc2c(F)c(F)ccc2[nH]c1=O)c1cnc(C#N)cn1 (single isomer, unassigned) [compound 12]				0.03	0.03	0.11	
C[C@@H](NC(=O)Cc1cc2c(F)cc(F)cc2[nH]c1=O)c1ncc(C#N)cc1F [compound 1137]				5.32	5.34	2.51	
Cc1c(CC(=O)N[C@H](C)c2ccc(C#N)cn2)c(=O)[nH]c2ccncc12 [compound 466]	100.00	100.00	100.00				
C[C@@H](NC(=O)C(F)(F)c1cc2cc(F)ccc2[nH]c1=O)c1cccc(C#N)n1 (single isomer, unassigned) [compound 2581]				100.00	100.00	100.00	
Cc1c(CC(=O)N[C@H](C)c2ncc(C#N)cc2F)c(=O)[nH]c2cc(F)c(F)cc12 [compound 1104]				0.14	0.03	0.21	
C[C@H](NC(=O)C(F)(F)c1cc2cc(F)ccc2[nH]c1=O)c1ccc(F)cc1F [compound 119]				0.26	0.11	1.96	
Cc1c(CC(=O)N[C@@H](CO)c2ncccc2F)c(=O)[nH]c2ccnc(C#N)c12 (single isomer, unassigned) [compound 236]	38.11	0.59	100.00				
Cc1nccc2[nH]c(=O)c(C(F)(F)C(=O)N[C@H](C)c3ccc(C#N)cc3F)c(C)c12 (single isomer, unassigned) [compound 3511]	0.56	0.26	2.65				
Cc1c(CC(=O)N[C@H](C)c2ccc(F)cc2F)c(=O)[nH]c2ccnc(C#N)c12 [compound 269]	100.00	2.47	34.76				
